Measurements reported in patent EP4610269A1, “UROKINASE PLASMINOGEN ACTIVATOR SURFACE RECEPTOR (UPAR) LIGANDS FOR DIAGNOSTIC OR THERAPEUTIC USE” (3B Pharmaceuticals GmbH, priority 2024, dated 2025).
Where two headings read alike, the source gives them in different places. *1 amine or outer side, *2 acyl side, *3 side chain or, on linkers, in order; H or OH if unused. Where a SMILES comes first, the peptide text is derived from it. Bridges are numbered along the chain shown (N, C = ends). [ ]: non-standard residue; d: D form. The star is where a group is joined. GdDOTA = Gd(III) DOTA conjugate, O=C([O-])CN1CCN(CC(=O)[O-])CCN(CC(=O)*)CCN(CC(=O)[O-])CC1.[Gd+3]; DOTA = O=C(O)CN1CCN(CC(=O)O)CCN(CC(=O)*)CCN(CC(=O)O)CC1; Pro(trans-4-F) = O=C(O)[C@@H]1C[C@@H](F)CN1; Phe(4-Cl) = N[C@@H](Cc1ccc(Cl)cc1)C(=O)O; Hyp = O=C(O)[C@@H]1C[C@@H](O)CN1; dCit = NC(=O)NCCC[C@@H](N)C(=O)O; Pentanoyl(4-Me) = CC(C)CCC(=O)*; Cit = NC(=O)NCCC[C@H](N)C(=O)O; Nva = CCC[C@H](N)C(=O)O; Hexanoyl = CCCCCC(=O)*; Pentanoyl = CCCCC(=O)*; CO = O=C([*:1])[*:2]; NHBu = CCCCN*

How the values were obtained:
[1] = target: T1, Recombinant soluble human NEP (Homo sapiens, UniProt P08473); assay: Proteolytic stability assay against NEP; type: in vitro ADME; conditions: human NEP 100 ng/mL, compound 10 µM, 37°C, LC-MS quantification; for remaining at 24 h, 10 µM: recombinant soluble human NEP, read-out: % intact compound remaining after 24h incubation
T1 construct: Recombinant soluble human NEP; purchased BioTechne, Wiesbaden, Germany
Experimental: To assess the stability of compounds against NEP, the compounds were subjected to an in vitro assay based on the protocol described by Edelson et al. (Edelson, Makhlina et al. 2013).
Recombinant soluble human NEP (BioTechne, Wiesbaden, Germany) at a concentration of 100 ng/mL was mixed with the compound (10 µM) and a stable internal standard (10 µM) and incubated at 37°C. After several time points, samples were taken and analyzed with LC-MS.
The determination of the analyte in the clean sample solutions was performed on an Agilent 1290 UHPLC system coupled to an Agilent 6530 Q-TOF mass spectrometer. The chromatographic separation was carried out on a Phenomenex BioZen XB-C18 HPLC column (50 × 2 mm, 1.7 µm particle size) with gradient elution using a mixture of 0.1% formic acid in water as eluent A and acetonitrile as eluent B (2% B to 41% in 7 min, 800 µl/min, 40°C). Mass spectrometric detection was performed in positive ion ESI mode by scanning the mass range from m/z 50 to 3000 with a sampling rate of 2 / sec.
(§1) From the mass spectrometric raw data the ion currents for the double or triple charged monoisotopic signal was extracted for both, the compound and the internal standard.
(§2) Quantitation was performed by external matrix calibration with internal standard using the integrated analyte signals.
The activity of NEP was examined using a commercially available chromogenic substrate of NEP.
(§3) The result is stated as "% intact compound remaining after 24 h incubation" and means that from the amount of material at the start of the experiment the stated percentage is detected as unchanged material at the end of the experiment by LC-MS quantification. Since all compounds are more than 50% intact after 24 h they are considered as stable enough for diagnostic and therapeutic applications. Table 14: Results of the NEP stability assay

human uPAR (uPAR-Fc) = target: T2, human uPAR (uPAR-Fc) (Homo sapiens, UniProt Q03405); assay: Surface plasmon resonance (SPR) assay, single cycle kinetics; type: binding; conditions: pKD category for uPAR SPR activity assay, uPAR-Fc on Protein A-Chip, 25°C, read-out: pKD CAT (converted)
T2 construct: comprising amino acids Leu23-Arg303 according to UniProt entry Q03405.1; purchased R&D Systems 10378-UK-100
Summary of the method: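 uPAR-Fc (Leu23-Arg303 extracellular domains, human IgG1 Fc) captured on Protein A chip to ~2000 RU; single-cycle kinetics at 25°C in HEPES running buffer pH 7.4 with 0.1% DMSO. KD from double-referenced sensorgrams fitted to 1:1 Langmuir model, reported as pKD.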

[2] = target: T3, uPAR-expressing HEC-265 human endometrial adenocarcinoma cells (Homo sapiens, UniProt Q03405); assay: Competitive FACS binding assay; conditions: pIC50 category of FACS binding
T3 construct: Cell surface uPAR-expressing HEC-265 human endometrial adenocarcinoma cells; host or cells: HEC-265
Summary of the method: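 HEC-265 cells incubated 1 h at 4 °C with 10 nM biotinylated uPAR peptide tracer plus increasing test compound, then stained with APC-streptavidin on ice. Median APC fluorescence by flow cytometry; 4PL fit gives pIC50.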

[3] = Plasma stability assay (mouse plasma); type: in vitro ADME; conditions: 37°C, LC-MS quantification; for remaining at 6 h, 9.8 µM: mouse plasma (sodium citrate 3.7%), read-out: % intact compound remaining after 6h incubation Mouse plasma
Experimental: In order to determine the stability of selected compounds of the invention in human and mouse plasma, a plasma stability assay was carried out. Such plasma stability assay measures degradation of compounds of the present invention in blood plasma. This is an important characteristic of a compound as compounds, with the exception of pro-drugs, which rapidly degrade in plasma, generally show poor in vivo efficacy. […] The stability is sufficient for the diagnostic, therapeutic and theragnostic use of these compounds according to the present invention.
The plasma stability samples were prepared by spiking 50 µl plasma aliquots (all sodium citrate 3.7%) with 1 µl of a 0.5 mM compound stock solution in DMSO. After vortexing the samples were incubated in a Thermomixer at 37°C for 0 and 6 hours. After incubation the samples were stored on ice until further treatment. All samples were prepared in duplicates.
A suitable internal standard was added to each sample (1 µl of a 0.5 mM stock solution in DMSO). Protein precipitation was performed using two different methods depending on the compound conditions as indicated in Table 13. • A) 250 µl of acetonitrile containing 1% trifluoroacetic acid was added. After incubation at room temperature for 30 min the precipitate was separated by centrifugation and 150 µl of the supernatant was diluted with 150 µl of 1% aqueous formic acid. • B) 150 µl of a zinc sulphate precipitation agent containing 78% 0.1 M zinc sulphate and 22% acetonitrile was added. After incubation at room temperature for 30 min the precipitate was separated by centrifugation. To 100 µl of the supernatant 10 µl of 1% formic acid was added followed by further incubation at 60°C for 10 min to complete the formation of the zinc chelate, if the compound contains a free DOTA moiety.
The determination of the analyte in the clean sample solutions was performed on an Agilent 1290 UHPLC system coupled to an Agilent 6530 Q-TOF mass spectrometer. The chromatographic separation was carried out on a Phenomenex BioZen XB-C18 HPLC column (50 x 2 mm, 1.7 µm particle size).
Two different elution gradients were applied using a mixture of 0.1% formic acid in water as eluent A and acetonitrile as eluent B: • A) 2% B to 41% in 7 min, 800 µl/min, 40°C. • B) 5% B to 50% B in 6 min, 800 µL/min, 40°C.
Mass spectrometric detection was performed in positive ion ESI mode by scanning the mass range from m/z 50 to 3000 with a sampling rate of 2 / sec.
as §1, §2
Additionally, recovery was determined by spiking a pure plasma sample that only contained the internal standard after treatment with a certain amount of the compound.
Carry-over was evaluated by analysis of a blank sample (20% acetonitrile) after the highest calibration sample.
as §3, with “6” for “24”, “13:” for “14:”, “plasma” for “NEP”

T2 sequence (Q03405 23-303): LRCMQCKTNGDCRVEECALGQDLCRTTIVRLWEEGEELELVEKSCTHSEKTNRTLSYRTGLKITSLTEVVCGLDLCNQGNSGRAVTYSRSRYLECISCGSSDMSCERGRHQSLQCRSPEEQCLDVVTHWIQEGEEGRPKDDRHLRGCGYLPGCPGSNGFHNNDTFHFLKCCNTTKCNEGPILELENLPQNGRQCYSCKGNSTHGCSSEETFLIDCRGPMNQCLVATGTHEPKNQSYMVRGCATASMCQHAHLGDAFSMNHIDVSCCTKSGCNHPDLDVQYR
T1 sequence (P08473 52-750 limits assumed): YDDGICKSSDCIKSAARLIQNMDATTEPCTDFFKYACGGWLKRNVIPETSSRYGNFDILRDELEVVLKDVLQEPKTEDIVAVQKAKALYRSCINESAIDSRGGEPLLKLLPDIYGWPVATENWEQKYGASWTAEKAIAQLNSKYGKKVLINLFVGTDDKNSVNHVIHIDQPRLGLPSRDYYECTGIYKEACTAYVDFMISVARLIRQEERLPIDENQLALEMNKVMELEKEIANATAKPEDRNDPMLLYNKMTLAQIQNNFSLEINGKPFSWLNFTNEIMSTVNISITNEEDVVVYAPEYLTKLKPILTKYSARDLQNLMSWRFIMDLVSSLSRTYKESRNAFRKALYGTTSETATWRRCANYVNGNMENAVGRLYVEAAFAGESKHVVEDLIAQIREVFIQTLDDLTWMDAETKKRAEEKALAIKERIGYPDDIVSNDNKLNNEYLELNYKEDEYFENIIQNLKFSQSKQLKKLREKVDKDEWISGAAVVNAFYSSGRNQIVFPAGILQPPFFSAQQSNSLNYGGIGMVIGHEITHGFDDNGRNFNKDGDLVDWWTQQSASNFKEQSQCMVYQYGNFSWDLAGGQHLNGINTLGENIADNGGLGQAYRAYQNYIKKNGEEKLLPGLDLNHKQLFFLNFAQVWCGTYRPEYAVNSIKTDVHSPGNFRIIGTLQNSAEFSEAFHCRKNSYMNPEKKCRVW
T3 sequence (Q03405 23-335): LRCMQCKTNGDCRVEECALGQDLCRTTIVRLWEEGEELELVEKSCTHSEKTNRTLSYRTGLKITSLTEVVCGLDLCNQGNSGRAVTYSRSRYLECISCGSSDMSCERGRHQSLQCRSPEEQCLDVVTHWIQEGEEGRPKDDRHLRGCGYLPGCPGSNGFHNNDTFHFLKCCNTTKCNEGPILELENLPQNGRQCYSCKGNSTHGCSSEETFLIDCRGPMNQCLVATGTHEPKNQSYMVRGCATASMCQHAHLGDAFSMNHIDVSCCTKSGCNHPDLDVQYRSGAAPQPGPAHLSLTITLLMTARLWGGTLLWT

remaining at 24 h, 10 µM [1]	Kd (human uPAR (uPAR-Fc))	IC50 [2]	Kd (human uPAR (uPAR-Fc); single cycle kinetics)	remaining at 6 h, 9.8 µM [3]	Compound	% intact compound remaining after 24h incubation [1]	% intact compound remaining after 6h incubation Mouse plasma ([3]; mouse plasma (sodium citrate))	pIC50 CAT [2]
> 95%	< 0.00158 µM	≤ 0.01 µM			CCCCC(=O)N[C@H]1CSSC[C@@H](C(N)=O)NC(=O)[C@H](CCC)NC(=O)[C@H]([C@@H](C)CC)NC(=O)[C@@H]2C[C@@H](O)CN2C(=O)[C@@H]2CCCN2C(=O)[C@H](Cc2ccc(Cl)cc2)NC(=O)[C@H](Cc2ccc(O)cc2)NC(=O)[C@H](CCCCNC(=O)CN2CCN(CC(=O)O)CCN(CC(=O)O)CCN(CC(=O)O)CC2)NC(=O)[C@H](CCCNC(N)=O)NC1=O [UPAR-233, Pent-[Cys-Cit-Lys(DOTA)-Tyr-Pcf-Pro-Hyp-Ile-Nva-Cys]-NH2] (Pentanoyl-C[Cit]K(DOTA)Y[Phe(4-Cl)]P[Hyp]I[Nva]C-NH2; disulfide 1-10)			
89%	< 0.00158 µM	≤ 0.01 µM			CCCCC(=O)N[C@H]1CSSC[C@@H](C(N)=O)NC(=O)[C@H](CCC)NC(=O)[C@H]([C@@H](C)CC)NC(=O)[C@@H]2C[C@@H](F)CN2C(=O)[C@@H]2CCCN2C(=O)[C@H](Cc2ccccc2)NC(=O)[C@H](Cc2ccc(O)cc2)NC(=O)[C@H](CCCCNC(=O)CN2CCN(CC(=O)O)CCN(CC(=O)O)CCN(CC(=O)O)CC2)NC(=O)[C@H](CCCNC(N)=O)NC1=O [UPAR-246, Pent-[Cys-Cit-Lys(DOTA)-Tyr-Phe-Pro-4Tfp-Ile-Nva-Cys]-NH2] (Pentanoyl-C[Cit]K(DOTA)YFP[Pro(trans-4-F)]I[Nva]C-NH2; disulfide 1-10)			
89%		≤ 0.01 µM	< 0.00158 µM		CCCCNC(=O)N[C@H]1CSSC[C@@H](C(N)=O)NC(=O)[C@H](CCC)NC(=O)[C@H]([C@@H](C)CC)NC(=O)[C@@H]2C[C@@H](O)CN2C(=O)[C@@H]2CCCN2C(=O)[C@H](Cc2ccccc2)NC(=O)[C@H](Cc2ccc(O)cc2)NC(=O)[C@H](CCCCNC(=O)CN2CCN(CC(=O)O)CCN(CC(=O)O)CCN(CC(=O)O)CC2)NC(=O)[C@H](CCCNC(N)=O)NC1=O [UPAR-346, nBu-CAyl-[Cys-Cit-Lys(DOTA)-Tyr-Phe-Pro-Hyp-Ile-Nva-Cys]-NH2] ({NHBu-CO}-C[Cit]K(DOTA)YFP[Hyp]I[Nva]C-NH2; disulfide 1-10)			
> 95%		≥ 0.126 µM	> 0.1 µM		CC[C@H](C)[C@@H]1NC(=O)[C@@H](C)NC(=O)[C@@H]2CCCN2C(=O)[C@H](Cc2ccccc2)NC(=O)[C@H](Cc2ccc(O)cc2)NC(=O)[C@H](CCC(N)=O)NC(=O)[C@@H](CCCNC(N)=O)NC(=O)[C@@H](NC(=O)CCC(C)C)CSSC[C@@H](C(N)=O)NC(=O)[C@H](CC(C)C)NC1=O [UPAR-364, iHex-[Cys-cit-Gln-Tyr-Phe-Pro-ala-Ile-Leu-Cys]-NH2] ({Pentanoyl(4-Me)}-C[dCit]QYFP[dA]ILC-NH2; disulfide 1-10)			
		≤ 0.01 µM	< 0.00158 µM	85%	CC[C@H](C)[C@@H]1NC(=O)[C@@H](C)NC(=O)[C@@H]2CCCN2C(=O)[C@H](Cc2ccccc2)NC(=O)[C@H](Cc2ccc(O)cc2)NC(=O)[C@H](CCC(N)=O)NC(=O)[C@H](CCCNC(N)=O)NC(=O)[C@@H](NC(=O)[C@H](CC(C)C)NC(C)=O)CSSC[C@@H](C(N)=O)NC(=O)[C@H](CC(C)C)NC1=O [UPAR-418, Ac-Leu-[Cys-Cit-Gln-Tyr-Phe-Pro-ala-Ile-Leu-Cys]-NH2] (Ac-LC[Cit]QYFP[dA]ILC-NH2; disulfide 2-11)			
		≤ 0.01 µM	< 0.00158 µM	> 95%	CCCCCC(=O)N[C@@H](CC(=O)O)C(=O)N[C@@H](CC(C)C)C(=O)N[C@H]1CSSC[C@@H](C(N)=O)NC(=O)[C@H](CC(C)C)NC(=O)[C@H]([C@@H](C)CC)NC(=O)[C@H](C)NC(=O)[C@@H]2CCCN2C(=O)[C@H](Cc2ccccc2)NC(=O)[C@H](Cc2ccc(O)cc2)NC(=O)[C@H](CCCCNC(=O)CN2CCN(CC(=O)O)CCN(CC(=O)O)CCN(CC(=O)O)CC2)NC(=O)[C@H](CCCNC(=N)N)NC1=O [UPAR-427, Hex-Asp-Leu-[Cys-Arg-Lys(DOTA)-Tyr-Phe-Pro-Ala-Ile-Leu-Cys]-NH2] (Hexanoyl-DLCRK(DOTA)YFPAILC-NH2; disulfide 3-12)			
> 95%		≤ 0.01 µM	< 0.00158 µM		CC[C@H](C)[C@@H]1NC(=O)[C@@H]2CCCN2C(=O)[C@@H]2CCCN2C(=O)[C@H](Cc2ccccc2)NC(=O)[C@H](Cc2ccc(O)cc2)NC(=O)[C@H](CCC(N)=O)NC(=O)[C@H](CCCCNC(=O)CN2CCN(CC(=O)O)CCN(CC(=O)O)CCN(CC(=O)O)CC2)NC(=O)[C@@H](NC(=O)CCC(C)C)CSSC[C@@H](C(N)=O)NC(=O)[C@H](CC(C)C)NC1=O [UPAR-466, iHex-[Cys-Lys(DOTA)-Gln-Tyr-Phe-Pro-Pro-Ile-Leu-Cys]-NH2] ({Pentanoyl(4-Me)}-CK(DOTA)QYFPPILC-NH2; disulfide 1-10)			
					iHex-[Cys-Cit-Lys(GdDOTA)-Tyr-Phe-Pro-ala-Ile-Leu-Cys]-NH2 ({Pentanoyl(4-Me)}-C[Cit]K(GdDOTA)YFP[dA]ILC-NH2; disulfide 1-10 (inferred); not fully specified) [UPAR-463]	88%	81%	A (pIC50 values ≥8.0)
